# Read-outs that look alike come from different tables or passages of the source.
# What was measured:
# hampsters [1] = experiment: Action on the formation of cholesterol calculi in the gall-bladder (cholesterol-enriched diet, 80 days); format: in vivo; conditions: female hampsters; for % animals with calculi / % animals with crystals: cholesterol-enriched diet
# Description: (§1) The investigations were carried out on hampsters (of female sex, but excluding those in a state of pregnancy) having an initial weight of 75-90 g. They were treated for 80 days with oral administration (by gastric probe) of MG-UCD (10-20 mg/kg/day), chenodeoxycholic acid (10-20 mg/kg/day) or ursodeoxycholic acid (10-20 mg/kg/day) (Tables 4 and 5). The animals were maintained for 80 consecutive days on a Nossan feed diet for rats, enriched with cholesterol (2 mg/g of food).
# (§2) Each experimental group consisted of 10 units. After 80 days, the animals were narcotised with ethyl ether, and the bile was withdrawn, together with the calculi and crystals from the gall-bladder as described by Pearlman and coll. in Gastroenterology 77, 634 (1979).
# [2] = Acute lethality and toxicity, oral administration (gastric probe); format: in vivo, Mus musculus; set-up: key to Toxic symptomatology Type: NN = no symptomatology; D = depression; conditions: in vivo, po; for mortality at 24 h / mortality at 168 h: oral; for mortality at 24 h: read-out: % mortality at following times after administration 24 h; for mortality at 168 h: read-out: % mortality at following times after administration 7 days; for LD50 at 168 h: probit method, read-out: LD50 (mg/kg with reliability limits) 7 days after treatment
# Description: (§3) Unless otherwise specified, the research was carried out using: a) Mg-UCD capsules as such; b) the powdered contents of Mg-UCD capsules; CDCA (chenodeoxycholic acid) and UDCA (ursodeoxycholic acid) as pure substance which in all cases was partly dissolved and partly suspended under warm conditions (T = 30°C) in 10% gum arabic mucilage (so as to administer 10-40 ml of liquid per kg orally). In certain cases, namely in the experiments involving parenteral administration, the active principle of Mg-UCD, the chenodeoxycholic acid and ursodeoxycholic acid were dissolved in distilled water of slightly alkaline pH (5-10 ml/kg).
# (§4) The generally acute lethality, toxicity and tolerability were determined by oral administration of the Mg-UCD (by gastric probe) in the Mus musculus, rat and dog. Animals of both sexes were used, none of which were pregnant. They were fasted for about 12 hours before treatment (but allowing them free access to water). The investigations were carried out using the Mg-UCD in powder form. Comparative investigations were carried out on the rat and Mus musculus using the active principle by endoperitoneal administration, and chenodeoxycholic acid and ursodeoxycholic acid by oral administration (using a gastric probe). Each dose was administered to 20 rats or Mus musculus (10 male and 10 female) and to eight dogs (4 male and 4 female). The animals were observed attentively during the 7 days following administration, and any lethality, toxic symptoms, disturbances, functional variations determinable with the eye, behaviour etc. were noted.
# (§5) The LD50 was determined 7 days after administration using the probit method.
# rat = experiment: as above; format: in vivo; set-up: key to Toxic symptomatology Type: NN = no symptomatology; D = depression; conditions: oral
# Description: as §3, §4, §5
# Mus musculus = experiment: as above; format: in vivo; set-up: key to Toxic symptomatology Type: NN = no symptomatology; D = depression; conditions: oral
# Description: as §3, §4, §5
# hampsters [3] = experiment: Bile lipid and bile acid contents of the bile (cholesterol-enriched diet, 80 days); format: in vivo
# Description: as §1, §2
# The bile acid, phospholipid, cholesterol, cholic acid, chenodeoxycholic acid, ursodeoxycholic acid, DCA (deoxycholic acid) and LCA (lithocholic acid) contents were evaluated in the bile by the methods described by Pearlman and coll. (see above).
# patients = experiment: Controlled study in comparison with the free acids; tolerability in patients; format: in vivo; conditions: patients
# [4] = mouse, 2000 mg/kg, M. musculus F, 2000 mg/kg
# [5] = mouse, 2000 mg/kg, M. musculus M, 2000 mg/kg
# [6] = mouse, 4000 mg/kg, M. musculus F, 4000 mg/kg
# [7] = mouse, 4000 mg/kg, M. musculus M, 4000 mg/kg
# [8] = mouse, 8000 mg/kg, M. musculus F, 8000 mg/kg
# [9] = mouse, 8000 mg/kg, M. musculus M, 8000 mg/kg
# [10] = rat, 2000 mg/kg, Rat F, 2000 mg/kg
# [11] = rat, 2000 mg/kg, Rat M, 2000 mg/kg
# [12] = rat, 4000 mg/kg, Rat F, 4000 mg/kg
# [13] = rat, 4000 mg/kg, Rat M, 4000 mg/kg
# [14] = rat, 8000 mg/kg, Rat F, 8000 mg/kg
# [15] = rat, 8000 mg/kg, Rat M, 8000 mg/kg
compound,measurement,setting,value
"C[C@H](CCC(=O)O)[C@H]1CC[C@H]2[C@@H]3[C@@H](O)C[C@@H]4C[C@H](O)CC[C@]4(C)[C@H]3CC[C@]12C [Ursodeoxycholic acid, 17β-(1-methyl-3-carboxypropyl)-ethiocholane-3α,7β-diol]",% animals with calculi,hampsters [1]; 10 mg/kg/day oral for 80 days,40%
same,% animals with crystals,hampsters [1]; 10 mg/kg/day oral for 80 days,20%
same,% animals with calculi,hampsters [1]; 20 mg/kg/day oral for 80 days,0%
same,% animals with crystals,hampsters [1]; 20 mg/kg/day oral for 80 days,0%
same,Body weight (g ± s.e.) after following days 80,"hampsters [1]; day 80, oral, 10 mg/kg/day",141 ± 7 g
same,mortality at 24 h,[2]; [4],0%
same,mortality at 168 h,[2]; [4],0%
same,mortality at 24 h,[2]; [5],0%
same,mortality at 168 h,[2]; [5],0%
same,mortality at 24 h,[2]; [6],20%
same,mortality at 168 h,[2]; [6],20%
same,mortality at 24 h,[2]; [7],20%
same,mortality at 168 h,[2]; [7],20%
same,mortality at 24 h,[2]; [8],60%
same,mortality at 168 h,[2]; [8],70%
same,mortality at 24 h,[2]; [9],60%
same,mortality at 168 h,[2]; [9],80%
same,LD50 at 168 h,"[2]; mouse, M. musculus F",6140 mg/kg
same,LD50 at 168 h,"[2]; mouse, M. musculus M",5630 mg/kg
same,mortality at 24 h,[2]; [10],0%
same,mortality at 168 h,[2]; [10],0%
same,mortality at 24 h,[2]; [11],0%
same,mortality at 168 h,[2]; [11],0%
same,mortality at 24 h,[2]; [12],10%
same,mortality at 168 h,[2]; [12],10%
same,mortality at 24 h,[2]; [13],10%
same,mortality at 168 h,[2]; [13],10%
same,mortality at 24 h,[2]; [14],70%
same,mortality at 168 h,[2]; [14],60%
same,mortality at 24 h,[2]; [15],70%
same,mortality at 168 h,[2]; [15],70%
same,LD50 at 168 h,"[2]; rat, Rat F",7330 mg/kg
same,LD50 at 168 h,"[2]; rat, Rat M",6490 mg/kg
same,Toxic symptomatology Latency,"rat; Rat F, 2000 mg/kg",5-10 min
same,Toxic symptomatology Type,"rat; Rat F, 2000 mg/kg",D
same,Toxic symptomatology Latency,"rat; Rat F, 4000 mg/kg",5-10 min
same,Toxic symptomatology Type,"rat; Rat F, 4000 mg/kg",D
same,Toxic symptomatology Latency,"rat; Rat F, 8000 mg/kg",5-10 min
same,Toxic symptomatology Type,"rat; Rat F, 8000 mg/kg",D
same,Toxic symptomatology Latency,"rat; Rat M, 2000 mg/kg",5-10 min
same,Toxic symptomatology Type,"rat; Rat M, 2000 mg/kg",D
same,Toxic symptomatology Latency,"rat; Rat M, 4000 mg/kg",5-10 min
same,Toxic symptomatology Type,"rat; Rat M, 4000 mg/kg",D
same,Toxic symptomatology Latency,"rat; Rat M, 8000 mg/kg",5-10 min
same,Toxic symptomatology Type,"rat; Rat M, 8000 mg/kg",D
same,Toxic symptomatology Latency,"Mus musculus; M. musculus F, 2000 mg/kg",5-10 min
same,Toxic symptomatology Type,"Mus musculus; M. musculus F, 2000 mg/kg",D
same,Toxic symptomatology Latency,"Mus musculus; M. musculus F, 4000 mg/kg",5-10 min
same,Toxic symptomatology Type,"Mus musculus; M. musculus F, 4000 mg/kg",D
same,Toxic symptomatology Latency,"Mus musculus; M. musculus F, 8000 mg/kg",5-10 min
same,Toxic symptomatology Type,"Mus musculus; M. musculus F, 8000 mg/kg",D
same,Toxic symptomatology Latency,"Mus musculus; M. musculus M, 2000 mg/kg",5-10 min
same,Toxic symptomatology Type,"Mus musculus; M. musculus M, 2000 mg/kg",D
same,Toxic symptomatology Latency,"Mus musculus; M. musculus M, 4000 mg/kg",5-10 min
same,Toxic symptomatology Type,"Mus musculus; M. musculus M, 4000 mg/kg",D
same,Toxic symptomatology Latency,"Mus musculus; M. musculus M, 8000 mg/kg",5-10 min
same,Toxic symptomatology Type,"Mus musculus; M. musculus M, 8000 mg/kg",D
same,Bile acids (expressed as molar % ± s.e.) Cheno-deoxycholic acid,hampsters [3]; 10 mg/kg/day oral for 80 days,12.4 ± 2.6 molar %
same,Bile acids (expressed as molar % ± s.e.) Cholic acid,hampsters [3]; 10 mg/kg/day oral for 80 days,30.2 ± 4.1 molar %
same,Bile acids (expressed as molar % ± s.e.) DCA,hampsters [3]; 10 mg/kg/day oral for 80 days,12.9 ± 0.8 molar %
same,Bile acids (expressed as molar % ± s.e.) LCA,hampsters [3]; 10 mg/kg/day oral for 80 days,2.5 ± 0.1 molar %
same,Bile acids (expressed as molar % ± s.e.) Urso-deoxycholic acid,hampsters [3]; 10 mg/kg/day oral for 80 days,36.2 ± 1.4 molar %
same,Bile lipids (expressed as molar % ± s.e.) Bile acids,hampsters [3]; 10 mg/kg/day oral for 80 days,79.7 ± 4.1 molar %
same,Bile lipids (expressed as molar % ± s.e.) Cholesterol,hampsters [3]; 10 mg/kg/day oral for 80 days,7.4 ± 0.4 molar %
same,Bile lipids (expressed as molar % ± s.e.) Phospho-lipids,hampsters [3]; 10 mg/kg/day oral for 80 days,15.5 ± 1.0 molar %
same,Bile acids (expressed as molar % ± s.e.) Cheno-deoxycholic acid,hampsters [3]; 20 mg/kg/day oral for 80 days,4.5 ± 0.9 molar %
same,Bile acids (expressed as molar % ± s.e.) Cholic acid,hampsters [3]; 20 mg/kg/day oral for 80 days,17.9 ± 2.1 molar %
same,Bile acids (expressed as molar % ± s.e.) DCA,hampsters [3]; 20 mg/kg/day oral for 80 days,10.5 ± 0.6 molar %
same,Bile acids (expressed as molar % ± s.e.) LCA,hampsters [3]; 20 mg/kg/day oral for 80 days,3.9 ± 0.2 molar %
same,Bile acids (expressed as molar % ± s.e.) Urso-deoxycholic acid,hampsters [3]; 20 mg/kg/day oral for 80 days,72.8 ± 4.7 molar %
same,Bile lipids (expressed as molar % ± s.e.) Bile acids,hampsters [3]; 20 mg/kg/day oral for 80 days,81.3 ± 4.3 molar %
same,Bile lipids (expressed as molar % ± s.e.) Cholesterol,hampsters [3]; 20 mg/kg/day oral for 80 days,5.7 ± 0.2 molar %
same,Bile lipids (expressed as molar % ± s.e.) Phospho-lipids,hampsters [3]; 20 mg/kg/day oral for 80 days,15.8 ± 1.0 molar %
same,side effects,patients,tends to cause constipation

# Source: EP0092073A1, “Magnesium salt of chenodeoxycholic acid and ursodeoxycholic acid, the process for its preparation, and therapeutic compositions which contain it as active principle” (SCHWARZ ITALIA S.p.A., priority 1982, dated 1983)
